{"source": "paper PMC5218480", "about": "(PLoS ONE, 2017)", "tested_on": "MV-4-11 cells", "assay": "Gene expression microarray analysis (Affymetrix PrimeView) and GSEA", "assay_type": "cell-based, human", "set-up": "RFU PODN (11730768_x_at) / Fold change /veh PODN (11730768_x_at) / RFU LINC00158 (11744669_a_at) / Fold change /veh LINC00158 (11744669_a_at) / RFU DUSP10 (11751237_a_at) / Fold change /veh DUSP10 (11751237_a_at) / RFU ID3 (11757404_x_at) / Fold change /veh ID3 (11757404_x_at) / RFU PLEKHG5 (11737974_s_at) / Fold change /veh PLEKHG5 (11737974_s_at) / RFU LRRC4B (11730491_at) / Fold change /veh LRRC4B (11730491_at) / RFU GIMAP4 (11747438_a_at) / Fold change /veh GIMAP4 (11747438_a_at) / RFU KRT8 (11758183_x_at) / Fold change /veh KRT8 (11758183_x_at) / RFU CNN1 (11734310_a_at) / Fold change /veh CNN1 (11734310_a_at) / RFU VPS37D (11726825_at) / Fold change /veh VPS37D (11726825_at) / RFU C10orf10 (11716522_x_at) / Fold change /veh C10orf10 (11716522_x_at) / RFU KIR2DL2 /// KIR2DL4 /// KIR2DL5A /// KIR2DL5B /// KIR2DS1 /// KIR2DS2 /// KIR2DS3 /// KIR2DS4 /// KIR3DL3 /// KIR3DL3 /// KIR3DS1 (11738374_at) / Fold change /veh KIR2DL2 /// KIR2DL4 /// KIR2DL5A /// KIR2DL5B /// KIR2DS1 /// KIR2DS2 /// KIR2DS3 /// KIR2DS4 /// KIR3DL3 /// KIR3DL3 /// KIR3DS1 (11738374_at) / RFU C1QL1 (11718748_at) / Fold change /veh C1QL1 (11718748_at) / RFU TMPRSS4 (11747572_a_at) / Fold change /veh TMPRSS4 (11747572_a_at) / RFU HAMP (11756126_x_at) / Fold change /veh HAMP (11756126_x_at) / RFU RNFT2 (11725882_a_at) / Fold change /veh RNFT2 (11725882_a_at) / RFU NR4A2 (11747474_a_at) / Fold change /veh NR4A2 (11747474_a_at) / RFU ABCC12 (11746883_a_at) / Fold change /veh ABCC12 (11746883_a_at) / RFU TMEM136 (11760407_x_at) / Fold change /veh TMEM136 (11760407_x_at) / RFU CLDN22 /// WWC2 (11732394_at) / Fold change /veh CLDN22 /// WWC2 (11732394_at) / RFU HLA-DPB1 (11760878_x_at) / Fold change /veh HLA-DPB1 (11760878_x_at) / RFU SPINT1 (11716480_a_at) / Fold change /veh SPINT1 (11716480_a_at) / RFU GAP43 (11754022_s_at) / Fold change /veh GAP43 (11754022_s_at) / RFU A4GNT (11735810_at) / Fold change /veh A4GNT (11735810_at) / RFU PRB3 (11715151_x_at) / Fold change /veh PRB3 (11715151_x_at) / RFU TUBB4B (11761932_at) / Fold change /veh TUBB4B (11761932_at) / RFU CAPN14 (11732068_a_at) / Fold change /veh CAPN14 (11732068_a_at) / RFU TMCC2 (11721928_a_at) / Fold change /veh TMCC2 (11721928_a_at) / RFU IRGQ (11745062_a_at) / Fold change /veh IRGQ (11745062_a_at) / RFU FAM174B (11720279_a_at) / Fold change /veh FAM174B (11720279_a_at) / RFU TMPRSS4 (11748680_a_at) / Fold change /veh TMPRSS4 (11748680_a_at) / RFU FAM212B (11763350_a_at) / Fold change /veh FAM212B (11763350_a_at) / RFU PLEKHG5 (11743358_a_at) / Fold change /veh PLEKHG5 (11743358_a_at) / RFU ZSCAN30 (11745921_a_at) / Fold change /veh ZSCAN30 (11745921_a_at) / RFU CMKLR1 (11741424_a_at) / Fold change /veh CMKLR1 (11741424_a_at) / RFU LOC101060620 /// MAPK8IP1 (11723275_at) / Fold change /veh LOC101060620 /// MAPK8IP1 (11723275_at) / RFU SPTSSB (11747773_x_at) / Fold change /veh SPTSSB (11747773_x_at) / RFU PRSS12 (11739890_at) / Fold change /veh PRSS12 (11739890_at) / RFU BIN1 (11741810_x_at) / Fold change /veh BIN1 (11741810_x_at) / RFU WNT11 (11732464_a_at) / Fold change /veh WNT11 (11732464_a_at) / RFU C10orf10 (11716521_a_at) / Fold change /veh C10orf10 (11716521_a_at) / RFU C5orf56 (11738089_at) / Fold change /veh C5orf56 (11738089_at) / RFU CYB561 (11721691_x_at) / Fold change /veh CYB561 (11721691_x_at) / RFU ANKRD19P (11752326_a_at) / Fold change /veh ANKRD19P (11752326_a_at) / RFU OR2T12 /// OR2T33 /// OR2T8 (11738714_s_at) / Fold change /veh OR2T12 /// OR2T33 /// OR2T8 (11738714_s_at) / RFU VCAN (11748164_a_at) / Fold change /veh VCAN (11748164_a_at) / RFU JSRP1 (11732532_at) / Fold change /veh JSRP1 (11732532_at) / RFU KRTAP10-11 (11738290_x_at) / Fold change /veh KRTAP10-11 (11738290_x_at) / RFU MYO3A (11730013_a_at) / Fold change /veh MYO3A (11730013_a_at) / RFU EBF3 (11725865_a_at) / Fold change /veh EBF3 (11725865_a_at) / RFU CAMK2N1 (11719241_x_at) / Fold change /veh CAMK2N1 (11719241_x_at) / RFU C5orf56 (11738088_a_at) / Fold change /veh C5orf56 (11738088_a_at) / RFU OLFML3 (11715873_a_at) / Fold change /veh OLFML3 (11715873_a_at) / RFU LOC100653217 /// NTM (11731650_a_at) / Fold change /veh LOC100653217 /// NTM (11731650_a_at) / RFU MAPK11 (11762145_a_at) / Fold change /veh MAPK11 (11762145_a_at) / RFU FIZ1 (11724087_x_at) / Fold change /veh FIZ1 (11724087_x_at) / RFU OASL (11726364_x_at) / Fold change /veh OASL (11726364_x_at) / RFU SOX15 (11748057_x_at) / Fold change /veh SOX15 (11748057_x_at) / RFU CD79A (11719716_a_at) / Fold change /veh CD79A (11719716_a_at) / RFU HIST1H1D (11736915_at) / Fold change /veh HIST1H1D (11736915_at) / RFU CASKIN2 (11723855_a_at) / Fold change /veh CASKIN2 (11723855_a_at) / RFU LOC730098 (11760151_x_at) / Fold change /veh LOC730098 (11760151_x_at) / RFU OR4N2 (11742367_at) / Fold change /veh OR4N2 (11742367_at) / RFU PRRT2 (11749266_a_at) / Fold change /veh PRRT2 (11749266_a_at) / RFU SNX32 (11753110_a_at) / Fold change /veh SNX32 (11753110_a_at) / RFU CDHR5 (11726645_a_at) / Fold change /veh CDHR5 (11726645_a_at) / RFU RCAN1 (11760418_a_at) / Fold change /veh RCAN1 (11760418_a_at) / RFU FAM167A (11723789_a_at) / Fold change /veh FAM167A (11723789_a_at) / RFU FAM26E (11764081_at) / Fold change /veh FAM26E (11764081_at) / RFU ISYNA1 (11749810_s_at) / Fold change /veh ISYNA1 (11749810_s_at) / RFU ACY1 (11761880_at) / Fold change /veh ACY1 (11761880_at) / RFU 11764098_at / Fold change /veh 11764098_at / RFU SAMD14 (11745864_x_at) / Fold change /veh SAMD14 (11745864_x_at) / RFU NPB (11741838_a_at) / Fold change /veh NPB (11741838_a_at) / RFU TMPRSS6 (11731388_a_at) / Fold change /veh TMPRSS6 (11731388_a_at) / RFU KRTAP10-2 (11738614_at) / Fold change /veh KRTAP10-2 (11738614_at) / RFU ARHGAP8 /// PRR5-ARHGAP8 (11727945_x_at) / Fold change /veh ARHGAP8 /// PRR5-ARHGAP8 (11727945_x_at) / RFU KRTAP5-7 /// NADSYN1 (11734609_at) / Fold change /veh KRTAP5-7 /// NADSYN1 (11734609_at) / RFU RASL12 (11751679_a_at) / Fold change /veh RASL12 (11751679_a_at) / RFU CDKN2B (11736163_a_at) / Fold change /veh CDKN2B (11736163_a_at) / RFU PRF1 (11729649_at) / Fold change /veh PRF1 (11729649_at) / RFU, ZNF638 /// ZNF638-IT1 / Fold change vs veh, ZNF638 /// ZNF638-IT1 / RFU, PANK3 / Fold change vs veh, PANK3 / RFU, SH3YL1 / Fold change vs veh, SH3YL1 / RFU, ZEB2 / Fold change vs veh, ZEB2 / RFU, NRIP1 / Fold change vs veh, NRIP1 / RFU, PTTG1IP / Fold change vs veh, PTTG1IP / RFU, CAPN2 / Fold change vs veh, CAPN2 / RFU, MED14 / Fold change vs veh, MED14 / RFU, SNORA58 / Fold change vs veh, SNORA58 / RFU, C1orf63 / Fold change vs veh, C1orf63 / RFU, LRRFIP1 / Fold change vs veh, LRRFIP1 / RFU, NDUFAF7 / Fold change vs veh, NDUFAF7 / RFU, SLC12A2 / Fold change vs veh, SLC12A2 / RFU, IBTK / Fold change vs veh, IBTK / RFU, ESF1 / Fold change vs veh, ESF1 / Fold change vs veh, TMEM50B / RFU, TAOK1 / Fold change vs veh, TAOK1 / RFU, ACBD3 / Fold change vs veh, ACBD3 / RFU, TMA16 / Fold change vs veh, TMA16 / RFU, RWDD3 / Fold change vs veh, RWDD3 / RFU, BCAT1 / Fold change vs veh, BCAT1 / RFU, EDEM3 / Fold change vs veh, EDEM3 / RFU, TMEM33 / Fold change vs veh, TMEM33 / RFU, WDR75 / Fold change vs veh, WDR75 / RFU, AHCTF1 / Fold change vs veh, AHCTF1 / RFU, TFRC / Fold change vs veh, TFRC / RFU, ZDHHC17 / Fold change vs veh, ZDHHC17 / RFU, NOM1 / Fold change vs veh, NOM1 / RFU, ARL8B / Fold change vs veh, ARL8B / RFU, ZBTB11 / Fold change vs veh, ZBTB11 / RFU, TAMM41 / Fold change vs veh, TAMM41 / RFU, KIAA1704 /// LOC100996395 / Fold change vs veh, KIAA1704 /// LOC100996395 / RFU, ING1 / Fold change vs veh, ING1 / RFU, TRMT61B / Fold change vs veh, TRMT61B / RFU, FUBP3 / Fold change vs veh, FUBP3 / RFU, TP53 / Fold change vs veh, TP53 / RFU, TNKS2 / Fold change vs veh, TNKS2 / RFU, ZFP14 / Fold change vs veh, ZFP14 / RFU, ACTR2 / Fold change vs veh, ACTR2 / RFU, PPP3R1 / Fold change vs veh, PPP3R1 / RFU, PIK3R1 / Fold change vs veh, PIK3R1 / RFU, HNRNPA1 / Fold change vs veh, HNRNPA1 / RFU, RNF170 / Fold change vs veh, RNF170 / RFU, ZNF28 / Fold change vs veh, ZNF28 / RFU, RNGTT / Fold change vs veh, RNGTT / RFU, OGT / Fold change vs veh, OGT / RFU, BRD1 / Fold change vs veh, BRD1 / RFU, MARS / Fold change vs veh, MARS / RFU, ZNF655 / Fold change vs veh, ZNF655 / RFU, FAHD1 / Fold change vs veh, FAHD1 / RFU, BDP1 / Fold change vs veh, BDP1 / RFU, LRRCC1 / Fold change vs veh, LRRCC1 / RFU, ARID1A / Fold change vs veh, ARID1A / RFU, ZNF146 / Fold change vs veh, ZNF146 / RFU, ZNF330 / Fold change vs veh, ZNF330 / RFU, GPN3 / Fold change vs veh, GPN3 / RFU, C9orf123 / Fold change vs veh, C9orf123 / RFU, N4BP2L2 / Fold change vs veh, N4BP2L2 / RFU, ARFIP1 / Fold change vs veh, ARFIP1 / RFU, FAM179B / Fold change vs veh, FAM179B / RFU, BCL10 / Fold change vs veh, BCL10 / RFU, UHRF1BP1L / Fold change vs veh, UHRF1BP1L / RFU, BET1 / Fold change vs veh, BET1 / RFU, CNOT2 / Fold change vs veh, CNOT2 / RFU, ZNF268 / Fold change vs veh, ZNF268 / Fold change vs veh, ZNF507 / RFU, DGCR2 / Fold change vs veh, DGCR2 / RFU, WDSUB1 / Fold change vs veh, WDSUB1 / Fold change vs veh, HSP90B1 /// MIR3652 / RFU, ADSS / Fold change vs veh, ADSS / RFU, GK / Fold change vs veh, GK / RFU, ZNF148 / Fold change vs veh, ZNF148 / RFU, TAF9 / Fold change vs veh, TAF9 / RFU, SLC1A5 / Fold change vs veh, SLC1A5 / RFU, SLMO2 / Fold change vs veh, SLMO2 / RFU, ABCC4 / Fold change vs veh, ABCC4 / RFU, LOC101060439 /// RAP1B / Fold change vs veh, LOC101060439 /// RAP1B / RFU, RFX7 / Fold change vs veh, RFX7 / RFU, GTPBP10 / Fold change vs veh, GTPBP10 / RFU, CNEP1R1 / Fold change vs veh, CNEP1R1 / RFU, BIVM-ERCC5 /// ERCC5 / Fold change vs veh, BIVM-ERCC5 /// ERCC5 / RFU, ILF3 / Fold change vs veh, ILF3 / RFU 11762660_at / Fold change /veh 11762660_at / RFU VCAN (11757783_s_at) / Fold change /veh VCAN (11757783_s_at) / RFU DDX43 (11728927_at) / Fold change /veh DDX43 (11728927_at) / RFU KRT8 (11758188_x_at) / Fold change /veh KRT8 (11758188_x_at) / RFU NKD1 (11759106_at) / Fold change /veh NKD1 (11759106_at) / RFU SRD5A1 (11742802_a_at) / Fold change /veh SRD5A1 (11742802_a_at) / RFU TPSAB1 /// TPSB2 (11721975_s_at) / Fold change /veh TPSAB1 /// TPSB2 (11721975_s_at) / RFU GSTM3 (11746129_a_at) / Fold change /veh GSTM3 (11746129_a_at) / RFU IL23R (11737362_x_at) / Fold change /veh IL23R (11737362_x_at) / RFU TMEM51 (11727254_a_at) / Fold change /veh TMEM51 (11727254_a_at) / RFU PIWIL2 (11732686_x_at) / Fold change /veh PIWIL2 (11732686_x_at) / RFU ORM1 (11744905_x_at) / Fold change /veh ORM1 (11744905_x_at) / RFU CCDC152 (11743942_at) / Fold change /veh CCDC152 (11743942_at) / RFU ECM1 (11717891_a_at) / Fold change /veh ECM1 (11717891_a_at) / RFU IL23R (11748794_a_at) / Fold change /veh IL23R (11748794_a_at) / RFU TNFAIP8L3 (11732012_x_at) / Fold change /veh TNFAIP8L3 (11732012_x_at) / RFU MBOAT4 (11741988_at) / Fold change /veh MBOAT4 (11741988_at) / RFU 11764193_at / Fold change /veh 11764193_at / RFU TMEM53 (11763286_at) / Fold change /veh TMEM53 (11763286_at) / RFU MAGEB2 (11727129_at) / Fold change /veh MAGEB2 (11727129_at) / RFU TMEM200A (11744735_a_at) / Fold change /veh TMEM200A (11744735_a_at) / RFU CCDC152 (11751479_a_at) / Fold change /veh CCDC152 (11751479_a_at) / RFU FAM211A (11726209_a_at) / Fold change /veh FAM211A (11726209_a_at) / RFU RGS16 (11746705_a_at) / Fold change /veh RGS16 (11746705_a_at) / RFU VCAN (11755009_s_at) / Fold change /veh VCAN (11755009_s_at) / RFU RHOB (11743442_s_at) / Fold change /veh RHOB (11743442_s_at) / RFU RGS16 (11720943_a_at) / Fold change /veh RGS16 (11720943_a_at) / RFU RGS16 (11720944_at) / Fold change /veh RGS16 (11720944_at) / RFU, VPS4B / Fold change vs veh, VPS4B / RFU, CREB1 / Fold change vs veh, CREB1 / RFU, DNAJC13 / Fold change vs veh, DNAJC13 / RFU, GNAQ / Fold change vs veh, GNAQ / RFU, CDK5R1 / Fold change vs veh, CDK5R1 / RFU, ZRANB3 / Fold change vs veh, ZRANB3 / RFU, CUL4A / Fold change vs veh, CUL4A / RFU, CCNY / Fold change vs veh, CCNY / RFU, UFL1 / Fold change vs veh, UFL1 / RFU, COG3 / Fold change vs veh, COG3 / RFU, DIAPH2 / Fold change vs veh, DIAPH2 / RFU, SKA2 / Fold change vs veh, SKA2 / RFU, AFF3 / Fold change vs veh, AFF3 / RFU, LMF1 / Fold change vs veh, LMF1 / RFU, IPO11 / Fold change vs veh, IPO11 / RFU, DFFB / Fold change vs veh, DFFB / RFU, FOXP1 / Fold change vs veh, FOXP1 / RFU, CARD8 / Fold change vs veh, CARD8 / RFU, STRN3 / Fold change vs veh, STRN3 / RFU, ADK / Fold change vs veh, ADK / RFU, RASSF2 / Fold change vs veh, RASSF2 / RFU, WIPF1 / Fold change vs veh, WIPF1 / RFU, LARP1B / Fold change vs veh, LARP1B / RFU, RASA1 / Fold change vs veh, RASA1 / RFU, RB1 / Fold change vs veh, RB1 / RFU, PPFIA1 / Fold change vs veh, PPFIA1 / RFU, MAT2A / Fold change vs veh, MAT2A / RFU, CCT5 / Fold change vs veh, CCT5 / RFU, WDR92 / Fold change vs veh, WDR92 / RFU, CUX1 / Fold change vs veh, CUX1 / RFU, TTC7A / Fold change vs veh, TTC7A / RFU, TMEM135 / Fold change vs veh, TMEM135 / RFU, DEPTOR / Fold change vs veh, DEPTOR / RFU, CPM / Fold change vs veh, CPM / RFU, DNAJB6 / Fold change vs veh, DNAJB6 / RFU, CACNA2D3 / Fold change vs veh, CACNA2D3 / RFU, DTX4 / Fold change vs veh, DTX4 / RFU, TFCP2 / Fold change vs veh, TFCP2 / RFU, GMCL1 /// GMCL1P1 / Fold change vs veh, GMCL1 /// GMCL1P1 / RFU, AEBP2 / Fold change vs veh, AEBP2 / RFU, SNHG1 /// SNORD22 /// SNORD25 /// SNORD26 /// SNORD27 /// SNORD28 /// SNORD29 /// SNORD31 / Fold change vs veh, SNHG1 /// SNORD22 /// SNORD25 /// SNORD26 /// SNORD27 /// SNORD28 /// SNORD29 /// SNORD31 / Fold change (Aza/veh), C12orf56 (ProbeSet 11735607_a_at) / Fold change (ACY-1035/veh), C12orf56 (ProbeSet 11735607_a_at) / Fold change (Aza/veh), FGFR1OP (ProbeSet 11751329_s_at) / Fold change (ACY-1035/veh), FGFR1OP (ProbeSet 11751329_s_at) / Fold change (Aza/veh), VPS36 (ProbeSet 11739960_a_at) / Fold change (ACY-1035/veh), VPS36 (ProbeSet 11739960_a_at) / RFU SYPL1 (11715823_x_at) / Fold change /veh SYPL1 (11715823_x_at) / RFU IGFBP7 (11715501_s_at) / Fold change /veh IGFBP7 (11715501_s_at) / RFU REEP3 (11722064_at) / Fold change /veh REEP3 (11722064_at) / RFU IGLL1 (11728026_x_at) / Fold change /veh IGLL1 (11728026_x_at): dose or concentration left out as unconfirmed", "conditions": "ProbeSet 11739263_x_at; LIST D"}
{"smiles": "Nc1ccc(-c2cccs2)cc1NC(=O)c1ccc2c(c1)cc(C1CC1)n2CCN1CCOCC1", "note": "[ACY-1035]", "values": [{"measurement": "RFU, VPS4B", "result": 70.19, "unit": "RFU"}]}
